The test system of series [1] is BV2 (mouse microglia) cell line. The series is described as follows: pHrodo-myelin phagocytosis/cell viability high content imaging assay: phagocytosis signal. The format is cell-based. In short, it runs like this:
(§1)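 Cells receive pHrodo-myelin, then are imaged at high content approximately 22 hours later. Phagocytosis signal and viability are captured in the same run. Three measurements are extracted per well.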

The nature of series [2]: physchem.
Series [3] concerns BV2 (mouse microglia) cell line. The series is described as follows: pHrodo-myelin phagocytosis/cell viability high content imaging assay: viability (cell count, nuclear area, nuclear intensity). In a few lines:
(§2)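 10 μM single dose, 48 h total; pHrodo-myelin present final 20 h. Read-out: automated imaging, total cell count/well, mean nuclear intensity/cell. n=2, normalized to untreated wells, % control.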

In series [4] the test system is HMC3 (human microglia) cell line. Nature of the series: pHrodo-myelin phagocytosis/cell viability high content imaging assay: phagocytosis signal. The format is cell-based. In short, it runs like this:
as §1

The test system of series [5] is cellular system. Particulars: published cellular activity at 10 μM; cited from earlier work.
The nature of series [6]: Kinetic solubility in aqueous buffer pH 7.4 by total chemiluminescent nitrogen determination (Analiza). Particulars: for solubility kinetic: aqueous buffer, pH 7.4, aqueous buffer, kinetic from dmso stock.
Series [7] concerns HMC3 (human microglia) cell line. The series is described as follows: pHrodo-myelin phagocytosis/cell viability high content imaging assay: viability (cell count, nuclear area, nuclear intensity). Particulars: HMC3 cells, 10 μM, cell count <70% control. In short, it runs like this:
as §2

[8] abbreviates: pH 7.4, aqueous buffer, kinetic from dmso stock.
[9] abbreviates: BV2 cells, 10 μM, cell count <70% control.

Consider 13 compounds from PMC9019904, “AD Informer Set: Chemical tools to facilitate Alzheimer's disease drug discovery” (Alzheimer's & Dementia : Translational Research & Clinical …, 2022).

Converted amounts (≈) assume the structure as drawn. Where a SMILES comes first, the peptide text is derived from it. [ ]: non-standard residue; d: D form. dHyp = O=C(O)[C@H]1C[C@H](O)CN1

`CC(=O)N1CCC(NC(=O)NC23CC4CC(CC(C4)C2)C3)CC1` [AR9281]: the “Stimulation of mouse microglial phagocytosis at 10 μM (>150% control)” value in series [1] (BV2, 10 μM) is recorded as “Y (The compound was found to stimulate phagocytosis (response threshold: >150% control) when murine immortalized microglial cells were dosed at 10 μM (Y: yes))”. Moreover, in series [2] (setting [8]), the solubility (kinetic) is 163 µM (≈ 51.9 µg/mL).

Turning to `CCOC(=O)CS(=O)(=O)c1ccc([C@@H](CO)NC(=O)c2cc3c(Cl)c(Cl)c(C)cc3n2C)cc1` [BI-4916], the “Mouse microglial cytotoxicity at 10 μM (<70% control)” value in series [3] (setting [9]) was “Y (The compound was found to be cytotoxic (cell count threshold: <70% control) when murine immortalized microglial cells were dosed at 10 μM (Y: yes))”. In addition, the “Stimulation of mouse microglial phagocytosis at 10 μM (>150% control)” value in series [1] (BV2 cells, 10 μM) is given as “Y (The compound was found to stimulate phagocytosis (response threshold: >150% control) when murine immortalized microglial cells were dosed at 10 μM (Y: yes))”. Moreover, in series [4] (HMC3 cells, 10 μM), the “Inhibition of human microglial phagocytosis at 10 μM (<70% control)” value is “Y (The compound was found to inhibit phagocytosis (response threshold: <70% control) when human immortalized microglial cells were dosed at 10 μM (Y: yes))”. Besides, in series [5], the “Reported as cell active (<10 μM)” value is on record as “Y (Published data supports that the compound is active in a cellular system when dosed at 10 μM (Y/N))”. In addition, the solubility (kinetic) in series [6] was less than 1.1 µM.

For `CCOC(=O)c1sc(NC(=O)c2ccco2)c(SC#N)c1C` [CBR-5884], the “Mouse microglial cytotoxicity at 10 μM (<70% control)” value in series [3] (setting [9]) is listed as “Y (The compound was found to be cytotoxic (cell count threshold: <70% control) when murine immortalized microglial cells were dosed at 10 μM (Y: yes))”. The “Stimulation of mouse microglial phagocytosis at 10 μM (>150% control)” value in series [1] (BV2 cells, 10 μM) is “Y (The compound was found to stimulate phagocytosis (response threshold: >150% control) when murine immortalized microglial cells were dosed at 10 μM (Y: yes))”. In addition, the “Inhibition of human microglial phagocytosis at 10 μM (<70% control)” value in series [4] (HMC3 cells, 10 μM) was “Y (The compound was found to inhibit phagocytosis (response threshold: <70% control) when human immortalized microglial cells were dosed at 10 μM (Y: yes))”. Besides, the “Reported as cell active (<10 μM)” value in series [5] is given as “N (tested/active at 15 μM)”. For the same compound, the kinetic solubility in series [6] is 2.8 µM (≈ 0.942 µg/mL).

Take `COc1cc(Nc2ncc(F)c(Nc3ccc4c(n3)N(COP(=O)(O)O)C(=O)C(C)(C)O4)n2)cc(OC)c1OC` [Fostamatinib]: in series [3] (setting [9]), the “Mouse microglial cytotoxicity at 10 μM (<70% control)” value was “Y (The compound was found to be cytotoxic (cell count threshold: <70% control) when murine immortalized microglial cells were dosed at 10 μM (Y: yes))”. Further, the “Inhibition of mouse microglial phagocytosis at 10 μM (<70% control)” value in series [1] (BV2 cells, 10 μM) is recorded as “Y (The compound was found to inhibit phagocytosis (response threshold: <70% control) when murine immortalized microglial cells were dosed at 10 μM (Y: yes))”. In addition, the “Stimulation of human microglial phagocytosis at 10 μM (>150% control)” value in series [4] (HMC3 cells, 10 μM) was “Y (The compound was found to stimulate phagocytosis (response threshold: >150% control) when human immortalized microglial cells were dosed at 10 μM (Y: yes))”. For the same compound, the “Reported as cell active (<10 μM)” value in series [5] is given as “Y (Published data supports that the compound is active in a cellular system when dosed at 10 μM (Y/N))”. For the same compound, in series [6], the kinetic solubility was 161 µM (≈ 93.5 µg/mL).

Turning to `CNC(=O)c1c(F)cccc1Nc1nc(Nc2cc3c(cc2OC)CCN3C(=O)CN(C)C)nc2[nH]ccc12` [GSK1838705A], in series [3] (BV2, 10 μM), the “Mouse microglial cytotoxicity at 10 μM (<70% control)” value is on record as “Y (The compound was found to be cytotoxic (cell count threshold: <70% control) when murine immortalized microglial cells were dosed at 10 μM (Y: yes))”. In addition, the “Inhibition of human microglial phagocytosis at 10 μM (<70% control)” value in series [4] (HMC3, 10 μM) is given as “Y (The compound was found to inhibit phagocytosis (response threshold: <70% control) when human immortalized microglial cells were dosed at 10 μM (Y: yes))”. The solubility (kinetic) in series [2] (setting [8]) amounted to 1 µM (≈ 0.533 µg/mL).

For the compound `CCCCc1nc(Cl)c(CO)n1Cc1ccc(-c2ccccc2-c2nn[nH]n2)cc1` [Losartan], the solubility (kinetic) in series [2] (setting [8]) is 117 µM (≈ 49.6 µg/mL).

Consider `CCCN(CC1CC1)c1nc(C)nc(Nc2c(Cl)cc(Cl)cc2Cl)c1Cl.Cl` [NBI 27914 (Compound 7a)], for which the “Mouse microglial cytotoxicity at 10 μM (<70% control)” value in series [3] (BV2, 10 μM) is “Y (The compound was found to be cytotoxic (cell count threshold: <70% control) when murine immortalized microglial cells were dosed at 10 μM (Y: yes))”. Also, the “Stimulation of mouse microglial phagocytosis at 10 μM (>150% control)” value in series [1] (BV2, 10 μM) is listed as “Y (The compound was found to stimulate phagocytosis (response threshold: >150% control) when murine immortalized microglial cells were dosed at 10 μM (Y: yes))”. This compound also came in with a solubility (kinetic) in series [2] (setting [8]) of less than 0.5 µM.

In the case of `COS(=O)(=O)[O-].C[n+]1c2ccccc2nc2ccccc21` [Phenazine methosulfate], the “Mouse microglial cytotoxicity at 10 μM (<70% control)” value in series [3] (setting [9]) was “Y (The compound was found to be cytotoxic (cell count threshold: <70% control) when murine immortalized microglial cells were dosed at 10 μM (Y: yes))”. Besides, the “Human microglial cytotoxicity at 10 μM (<70% control)” value in series [7] is reported as “Y (The compound was found to be cytotoxic (cell count threshold: <70% control) when human immortalized microglial cells were dosed at 10 μM (Y: yes))”. Further, the “Inhibition of mouse microglial phagocytosis at 10 μM (<70% control)” value in series [1] (BV2 cells, 10 μM) was “Y (The compound was found to inhibit phagocytosis (response threshold: <70% control) when murine immortalized microglial cells were dosed at 10 μM (Y: yes))”. Moreover, the “Inhibition of human microglial phagocytosis at 10 μM (<70% control)” value in series [4] (HMC3 cells, 10 μM) is “Y (The compound was found to inhibit phagocytosis (response threshold: <70% control) when human immortalized microglial cells were dosed at 10 μM (Y: yes))”. In addition, the “Reported as cell active (<10 μM)” value in series [5] is reported as “Y (Published data supports that the compound is active in a cellular system when dosed at 10 μM (Y/N))”. For the same compound, in series [6] (aqueous buffer pH 7.4), the “Kinetic solubility” value worked out at 101.8 µM.

Consider `CC(C)(C)c1cc(NC(=O)Nc2ccc(-c3cn4c(n3)sc3cc(OCCN5CCOCC5)ccc34)cc2)no1` [Quizartinib], for which the kinetic solubility in series [2] (setting [8]) stood at 0.9 µM (≈ 0.505 µg/mL).

Compound `CC(=O)N[C@H](Cc1ccc(O)cc1)C(=O)N1CCC[C@@H]1C(=O)N1C[C@@H](O)C[C@@H]1C(=O)NCC(=O)N[C@H](C)C(=O)NCC(N)=O` [Rotigaptide] (Ac-[dY][dP][dHyp]G[dA]G-NH2) showed a kinetic solubility in series [2] (pH 7.4) of 177 µM (≈ 110 µg/mL).

As for `COc1ccc(CC[C@@H](OC(=O)[C@@H]2CCCCN2C(=O)[C@H](c2cc(OC)c(OC)c(OC)c2)C2CCCCC2)c2cccc(OCC(=O)O)c2)cc1OC` [SAFit1], the “Stimulation of mouse microglial phagocytosis at 10 μM (>150% control)” value in series [1] (10 μM, BV2) is “Y (The compound was found to stimulate phagocytosis (response threshold: >150% control) when murine immortalized microglial cells were dosed at 10 μM (Y: yes))”. The compound also came in with a solubility (kinetic) in series [2] (setting [8]) of 87.3 µM (≈ 65.3 µg/mL).

With `COc1cc(/C=C/c2ccc(NC(=O)/C=C/c3cc(OC)c(OC)c(OC)c3)cc2)cc(OC)c1` [STAT3-IN-3], in series [3] (setting [9]), the “Mouse microglial cytotoxicity at 10 μM (<70% control)” value was “Y (The compound was found to be cytotoxic (cell count threshold: <70% control) when murine immortalized microglial cells were dosed at 10 μM (Y: yes))”. The “Inhibition of mouse microglial phagocytosis at 10 μM (<70% control)” value in series [1] (BV2 cells, 10 μM) is recorded as “Y (The compound was found to inhibit phagocytosis (response threshold: <70% control) when murine immortalized microglial cells were dosed at 10 μM (Y: yes))”. Also, in series [4] (HMC3 cells, 10 μM), the “Inhibition of human microglial phagocytosis at 10 μM (<70% control)” value is on record as “Y (The compound was found to inhibit phagocytosis (response threshold: <70% control) when human immortalized microglial cells were dosed at 10 μM (Y: yes))”. Further, in series [5], the “Reported as cell active (<10 μM)” value is given as “Y (Published data supports that the compound is active in a cellular system when dosed at 10 μM (Y/N))”. The compound further returned a solubility (kinetic) in series [6] of 4.9 µM (≈ 2.33 µg/mL).

Take `Cc1cc(NC(=O)Cc2ccc(F)c(Cl)c2)n(C2CCCCC2)n1` [VU0810464]: in series [2] (setting [8]), the kinetic solubility was 108 µM (≈ 37.9 µg/mL).

The solubility (kinetic) is solubility judged after dilution from a stock solution rather than from solid.
